Here are results for two compounds from US20160168140A1, “HETEROCYCLIC COMPOUNDS AS ANTIBIOTIC POTENTIATORS” (priority 2014, published 2016).

Test [1] deals with SOS response (sulAp-lacZ reporter) in E. coli strain DM4000. Kind of test: Ciprofloxacin-induced SOS reporter gene expression assay (sulAp-lacZ, Beta-Glo luminescence, with or without PMBN). The class given is cell-based. The settings on record: Escherichia coli; in the presence of PMBN (4 μg/mL); read-out: SOS Attenuation EC50. An excerpt: An SOS reporter gene assay was used to assess the ability of the RecA inhibitor compounds to block the SOS response to ciprofloxacin. Details of the testing methodology are provided in, for example, Sandler et al., Genetics 143(1):5-13 (1996) and McCool et al., Mol Microbiol. 53(5):1343-57 (2004). The SOS genes are regulated by the transcriptional repressor LexA and the DNA-binding protein RecA. When DNA damage occurs, RecA binds to ssDNA, and this protein-DNA complex then induces the autocleavage of LexA, resulting in the depression of LexA-bound promoters. […] Therefore, a reporter construct wherein the sulA promoter (sulAp) is fused to the lacZ gene can be used to measure the level of the SOS response in cells using an assay for β-galactosidase activity.
E. coli strain DM4000 contains the sulAp-lacZ reporter gene inserted at the X attachment site. Two additional strains containing the same sulAp-lacZ reporter gene were used as RecA-independent controls in this assay. JC19098 encodes an un-cleaveable LexA repressor; therefore, the sulA promoter-dependent β-galactosidase expression is always off. […]
Luminescence was measured on a plate reader with the gain adjustment set to 40% of the maximum on a well with one of the highest luminescence values on the plate (e.g., a well containing ciprofloxacin without inhibitor). […]

Test [2] deals with Acinetobacter baumannii (Ab23). Kind of test: MIC shift assay of antibiotics (broth microdilution). Type of test: cell-based. Particulars: Acinetobacter baumannii (Ab23); compound concentration 10 μM; MIC of colistin alone >8.0 μg/mL. The method, boiled down: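 Following a modified Wiegand broth microdilution protocol, colistin serial dilutions with or without test compound were set up in round-bottom 96-well plates and inoculated with A. baumannii cells to a starting OD600 of 0.005. Plates were shaken at 37° C. for 18 to 20 h and read at OD600. The fold shift was calculated from colistin MIC alone versus colistin MIC with test compound, with growth and medium-only blank controls.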

A further test deals with E. coli. Described as above. The class given is cell-based. Particulars: E. coli (SCR1); compound concentration 10 μM; MIC of colistin alone 0.5-1.0 μg/mL. How it is done: Minimum inhibitory concentration (MIC) shift assays were performed to determine if the test compounds could alter the MIC of existing antibacterial drugs (e.g., ciprofloxacin and colistin) for E. coli, Acinetobacter baumannii, Klebsiella pneumoniae, Pseudomonas aeruginosa, and Enterobacter cloacae. The MIC shift assay is based on the standard broth microdilution MIC determination protocol of Wiegand et al, Nat Protoc. 3(2):163-75 (2008), with slight modifications that allow for the screening of up to seven test compounds in a single plate.
On the day before an assay, bacteria were grown overnight in cation-adjusted Mueller Hinton broth (CAMHB; Teknova, Hollister, Calif.) at 37° C. in an orbital shaker and sub-cultured at a 1:200 dilution the following morning. The cells were grown to OD600=0.5 to 0.8 and then diluted to OD600=0.01. From a serial dilution of each antibiotic at (50 μL of 2× concentrated stock solutions) several concentrations were added to the wells of a sterile, transparent round-bottom 96-well plate (Phenix Research Products, Candler, N.C.), and diluted cells (50 μL) were added to the plates for a starting OD600 of 0.005. Then, a test compound (2.5 μL) was added to each well to give a final concentration of 4 or 10 μM. A row of wells lacking test compound but containing the antibiotic was used to determine the MIC of that antibiotic alone. A column of wells lacking both antibiotic and test compound served as a growth control, and an additional column containing only CAMHB was included as a sterile blank control.
The plates were incubated for 18 to 20 h at 37° C. in an orbital shaker, and the cell density (OD600) was determined the following day in a microplate reader (PolarStar Optima, BMG Labtech). The MIC shift was determined by comparing the MIC of the antibiotic alone to the MIC of the antibiotic plus test compound.

In the next test the target is T1, E. coli RecA (Escherichia coli, UniProt P0A7G6).
T1 construct: purchased New England BioLabs
T1 sequence (P0A7G6 2-353): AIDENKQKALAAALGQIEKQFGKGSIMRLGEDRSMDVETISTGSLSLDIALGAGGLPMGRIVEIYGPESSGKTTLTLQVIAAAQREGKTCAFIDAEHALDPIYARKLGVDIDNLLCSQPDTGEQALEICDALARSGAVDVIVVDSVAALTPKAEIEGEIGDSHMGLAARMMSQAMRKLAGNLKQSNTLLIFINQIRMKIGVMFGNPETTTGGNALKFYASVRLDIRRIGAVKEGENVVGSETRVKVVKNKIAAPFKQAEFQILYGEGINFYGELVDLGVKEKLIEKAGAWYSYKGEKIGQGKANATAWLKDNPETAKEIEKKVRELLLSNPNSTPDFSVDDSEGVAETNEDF
Kind of test: RecA ssDNA-dependent ATPase assay (coupled enzyme, amplex red fluorescence). Type of test: biochemical. Particulars: read-out: RecA Inhibition IC50. On the procedure: A coupled enzyme ATPase assay, similar to that described in Wigle and Singleton, BioorgMed Chem Lett. 17(12):3249-53 (2007), was used to screen compounds for in vitro activity against RecA. A solution of the compound to be tested dissolved in DMSO (5 μL of 20× concentrated stock) was added to 90 μL of a master mix containing the following components at their final concentrations in the appropriate wells of flat-bottomed black 96-well plates (Corning Life Sciences, Corning N.Y.) at 37° C.: 0.5 μM E. coli RecA (New England BioLabs), 10 mM Mg(OAc)2 (Sigma, St. Louis, Mo.), 500 μM ATP (Sigma), 250 μM phosphoenolpyruvate (Sigma), 100 μM amplex red (Invitrogen, Carlsbad, Calif.), 1 U/mL pyruvate kinase (Sigma), 1 U/mL pyruvate oxidase (Thermo Fisher Scientific, Waltham, Mass.), 1 U/mL horseradish peroxidase (Sigma), and 20 mM Tris*HOAc, pH 7.5 (Boston BioProducts, Ashland, Mass.). The total volume of the assay solution was 100 μL. […]
The fluorescence emission at 595 nm (excitation at 485 nm) was then recorded using a microplate reader (PolarStar Optima, BMG Labtech, Ortenberg, Germany) for approximately 25 min to establish the baseline fluorescence.
To initiate the reactions, poly(dT) (5 μL of a 100 μM-nts stock solution) was added to each well to give a final DNA concentration of 5 μM-nts. Fluorescence emission was recorded for an additional 90 min. […]

As usually defined, the EC50 is the midpoint of the concentration-response curve. In general, IC50 refers to the concentration at which inhibition is half-maximal. In the case of `CN(C)CCCNc1nc(/C=C/c2ccc(Cl)c(Cl)c2)nc2c(C(F)(F)F)cccc12` [MLJ-02-070A], the EC50 in test [1] is under 6 µM. For the same compound, the “Colistin MIC Shift” value is reported as over 128X in test [2] and 16-32X in the test on E. coli. The IC50 at E. coli RecA came to 12 µM.

Take `Clc1ccc(/C=C/c2c[nH]c3ccc(Br)cc23)cc1Cl` [MLJ-02-086B]: in test [1], the EC50 came out at 8 µM. Besides, the figures for the “Colistin MIC Shift” value (in test [2]; with E. coli) were over 64X and 8-16X, respectively. Also, the IC50 on E. coli RecA is 15 µM.
